Source: US20190256626A1, “SURFACTANTS AND METHODS FOR MAKING SAME” (REGENTS OF THE UNIVERSITY OF MINNESOTA, priority 2016, published 2019)
Marks after values point to notes of the source that are not given here.

What was measured:
[1] = TGA of Dispersions A-J (oxaprozin or 5-methyl-5-phenylhydantoin) and pure drugs; assay type: physicochemical; conditions: pure drugs
Procedure: (§1) Thermogravimetric analysis (TGA) of Dispersions A-J was performed using a Q500 instrument from TA Instruments. The decomposition temperature (Td) at 5% was recorded for each dispersion and Td,1% was recorded for the pure drugs. Td,5% was recorded for the dispersions due to the hydrophilic properties of the surfactants, which required removal of surface moisture before the materials began to decompose. Differential Scanning Calorimetry (DSC) experiments were performed on Dispersions A-J and pure oxaprozin and 5-methyl-5-phenylhydantoin using a Discovery Series instrument from TA Instruments. Each dispersion was heated twice to Td,5%. The pure compounds were heated twice to Td,1%. The heating rate in all experiments was 10° C./min. […] These values approached the Tg value of pure surfactants (135.76° C.) as the ratio of the molecular weight of the poly(N-isopropylacrylamide) hydrophilic segment in kDa/mol to (m+1) increased. Generally, the dispersions including oxaprozin yielded lower Tg values. Without being bound by theory, the lower Tg values might be attributable to the larger size of oxaprozin, which would further disrupt surfactant packing.

[2] = DSC of Dispersions A-J (oxaprozin or 5-methyl-5-phenylhydantoin) and pure drugs; assay type: physicochemical; conditions: heating rate 10° C./min
Procedure: as §1

Row | Td,1% [1] | First Heat Tg [2] [°C] | Compound
1 | 188* ° C. | 134 | CC1(c2ccccc2)NC(=O)NC1=O (stereo not shown) [5-methyl-5-phenylhydantoin]
2 | 206* ° C. | 21 | O=C(O)CCc1nc(-c2ccccc2)c(-c2ccccc2)o1 [Oxaprozin, oxaprozin]
